Data from ChEMBL document CHEMBL1131500, “Novel biologically active nonpeptidic inhibitors of myristoylCoA:protein N-myristoyltransferase” (J Med Chem, 1998).
≈ marks a conversion by molar mass, not a printed value.

Key:
[1] = target: T1, Glycylpeptide N-tetradecanoyltransferase (Candida albicans (strain SC5314 / ATCC MYA-2876) (Yeast), UniProt P30418); assay: Compound was tested for the inhibition potency against Candida albicans N-myristoyltransferase (NMT) using peptide substrate GNAASARR-NH2 at its apparent Km and myristoylCoA at 1 uM
T1 sequence (P30418 whole entry): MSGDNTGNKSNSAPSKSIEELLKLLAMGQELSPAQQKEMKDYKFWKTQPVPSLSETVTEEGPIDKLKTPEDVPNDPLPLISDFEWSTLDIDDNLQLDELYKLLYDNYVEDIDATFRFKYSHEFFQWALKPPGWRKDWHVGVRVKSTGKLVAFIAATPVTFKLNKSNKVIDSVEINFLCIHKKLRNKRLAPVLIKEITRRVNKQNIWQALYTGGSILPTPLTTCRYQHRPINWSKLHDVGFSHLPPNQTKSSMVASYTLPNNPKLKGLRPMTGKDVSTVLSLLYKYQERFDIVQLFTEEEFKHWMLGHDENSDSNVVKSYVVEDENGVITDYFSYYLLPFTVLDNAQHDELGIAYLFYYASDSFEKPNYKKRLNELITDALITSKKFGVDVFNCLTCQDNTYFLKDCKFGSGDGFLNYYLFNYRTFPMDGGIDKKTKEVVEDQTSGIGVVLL

Candida albicans [2] = assay: Compound was tested for the effective concentration against Candida albicans for 24 hr; format: functional, organism-based
[3] = target: T2, Peptide N-myristoyltransferase (Homo sapiens, UniProt P30419+O60551); assay: Compound was tested for the inhibition potency against human N-myristoyltransferase (NMT) using peptide substrate GNAASARR-NH2 at its apparent Km and myristoylCoA at 1 uM; format: protein assay
T2 sequence (P30419 whole entry): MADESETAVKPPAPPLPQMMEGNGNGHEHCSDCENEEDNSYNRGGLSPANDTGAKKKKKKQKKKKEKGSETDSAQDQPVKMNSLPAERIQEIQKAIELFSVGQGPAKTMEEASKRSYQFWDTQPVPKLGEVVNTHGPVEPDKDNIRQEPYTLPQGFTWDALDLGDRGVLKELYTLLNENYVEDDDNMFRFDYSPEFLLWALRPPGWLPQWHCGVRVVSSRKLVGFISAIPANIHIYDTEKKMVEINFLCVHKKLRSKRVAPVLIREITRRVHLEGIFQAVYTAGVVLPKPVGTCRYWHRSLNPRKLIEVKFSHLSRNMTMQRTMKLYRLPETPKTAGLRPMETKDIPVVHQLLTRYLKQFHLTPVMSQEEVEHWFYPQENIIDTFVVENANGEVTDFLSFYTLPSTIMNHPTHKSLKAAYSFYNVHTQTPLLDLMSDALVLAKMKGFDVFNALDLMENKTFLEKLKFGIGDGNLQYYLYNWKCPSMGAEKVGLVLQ
T2 sequence (O60551 whole entry): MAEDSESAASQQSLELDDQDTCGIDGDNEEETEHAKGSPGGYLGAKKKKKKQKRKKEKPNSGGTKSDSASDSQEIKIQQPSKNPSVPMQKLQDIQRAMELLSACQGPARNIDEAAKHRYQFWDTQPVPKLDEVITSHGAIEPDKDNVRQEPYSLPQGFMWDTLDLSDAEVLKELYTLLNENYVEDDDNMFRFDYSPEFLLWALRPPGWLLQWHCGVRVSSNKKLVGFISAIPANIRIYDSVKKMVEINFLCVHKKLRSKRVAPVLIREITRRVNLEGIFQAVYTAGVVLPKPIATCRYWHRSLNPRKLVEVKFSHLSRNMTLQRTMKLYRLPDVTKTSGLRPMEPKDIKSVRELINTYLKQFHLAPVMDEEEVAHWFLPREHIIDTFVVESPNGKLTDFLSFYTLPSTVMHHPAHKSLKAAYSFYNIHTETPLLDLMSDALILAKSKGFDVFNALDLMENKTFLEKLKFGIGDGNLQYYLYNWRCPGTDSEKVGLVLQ

[4] = target: T1, Glycylpeptide N-tetradecanoyltransferase; assay: compound was tested for the inhibition potency against Candida albicans N-myristoyltransferase (NMT) using peptide substrate GNAASARR-NH2 at its apparent Km and myristoylCoA at 1 uM
Candida albicans [5] = assay: the fungicidal activity against Candida albicans was reported; format: functional
Candida albicans [6] = assay: compound was tested for the effective concentration against Candida albicans for 24 hr; format: functional, organism-based
[7] = target: T2, Peptide N-myristoyltransferase; assay: compound was tested for the inhibition potency against human N-myristoyltransferase (NMT) using peptide substrate GNAASARR-NH2 at its apparent Km and myristoylCoA at 1 uM; format: protein assay
[8] = target: T1, Glycylpeptide N-tetradecanoyltransferase; assay: The Compound was tested for the inhibition potency against Candida albicans N-myristoyltransferase (NMT) and reported as apparent Ki

IC50 [1]	EC50 (Candida albicans [2])	IC50 [3]	IC50 [4]	EC50 (Candida albicans [6])	IC50 [7]	Compound	MFC (Candida albicans [5])	Ki [8]
29.3 µM	56 µM	62.3 µM	–	–	–	Cc1nccn1CCCCc1ccc(CC(=O)N[C@H](CO)Cc2ccc(OCCC3CCCCC3)c(CCCN)c2)cc1	–	–
–	–	–	20 µM	49 µM	64 µM	Cc1nccn1CCCCc1ccc(CC(=O)N[C@H](CO)Cc2ccc(OCCC3CCCCC3)c(CCCCN)c2)cc1	150 µM (≈ 90.4 µg/mL)	–
–	–	–	17.5 µM	77 µM	6.5 µM	Cc1nccn1CCCCc1ccc(CC(=O)N[C@@H](CO)Cc2ccc(OCCC3CCCCC3)c(CCCN)c2)cc1	250 µM (≈ 147 µg/mL)	–
–	–	–	–	–	–	H-ALYASKLS-NH2	–	15.3 µM
